Reference: patent publication US6423700B1, “17-halogenated 19-nor steroids, method and intermediates for preparing same, use as medicines and pharmaceutical compositions containing same” (Aventis Pharma S.A., priority 1998, dated 2002)
Values joined by “and” are separate entries in the source; they are usually repeats but may differ in a detail not shown here. Equal entries are not always repeated.

Experiments:
[1] = tested on: MCF-7 human mammary cells; test: Effect on the proliferation of mammary cells (MCF-7, determination of the DNA); assay type: cell-based; set-up: key: Agonist: the effect of the oestradiol at 10^−10M (cell growth in the presence of oestradiol less cell growth in the presence of the solvent) determines the 100% agonist activity; Inactive: molecules inducing an identical cell growth to that observed with the solvent alone are classified as “inactive”; Inhibitor: those inducing a lower cell growth to that observed with the solvent are classified as “inhibitor”; settings: 7 days culture in steroid-free medium; compared with oestradiol at 10^−10M = 100% agonist activity
Experimental: Effect on the Proliferation of Mammary Cells The proliferative activity of the molecules is studied in comparison to that of oestradiol on MCF-7 human mammary cells in culture. […] Cells undergo this severance two days before the start of the test. After 7 days culture in the presence of the products to be studied, the cell proliferation is evaluated by determination of the DNA. In each test, the effect of the oestradiol at 10^−10M (cell growth in the presence of oestradiol less cell growth in the presence of the solvent) determines the 100% agonist activity. The activity of the molecules is evaluated in comparison to this internal control.

[2] = tested on: ovariectomized female rat; test: Bone impact study in the ovariectomized female rat at the age of 3 months (tibia BMD, uterus weight, serum cholesterol); assay type: in vivo; settings: OVX rat; for TIBIA BONE BMD %: OVX=0, SHAM=100; for UTERUS Weight % / Cholesterol %: 4 weeks; for UTERUS Weight %: increase in % of uterus weight of OVX animals receiving solvent; for Cholesterol %: serum cholesterol change in % relative to OVX animals receiving solvent
Experimental: Bone impact study of a product in the ovariectomized female rat at the age of 3 months The compounds are tested in order to determine their effect on the bone mass and on the formation and resorption activity in the model of the ovariectomized rat at the age of 3 months. The animals are treated in a preventive fashion. [table] 1—Product to be tested: Product of Example 1. vehicle(s): corn oil, 0.5% methylcellulose number of administrations: once/day; 5 days/week for 4 weeks administration route: oral route for the product 2—Reference product: 17β oestradiol is administered by subcutaneous route at a dose of 0.1 or 0.01 mg/kg/d in solution in a mixture of corn oil-benzyl alcohol (99:1, v/v) under a volume of 0.2 ml/kg. The study is carried out with female rats ovariectomized at the age of 3 months. The animals are kept in an air-conditioned room (temperature 20° C.±2° C.) and grouped by 4 into boxes. The animals receive, ad libitum, demineralized water and compressed foods (pellets: AO4CR-10 UAR). The 3 month old female rats weighing approximately 250 g are ovariectomized under anaesthesia with Imalgene 1000, at a dose of 100 mg/kg by intraperitoneal route (i.p.) and under a volume of 1 ml/kg. They also receive Nembutal (3 mg/kg i.p. under a volume of 0.3 ml/kg). The effects of the products are determined in a preventive treatment. They are administered immediately after the ovariectomy. Animals are distributed into groups of 8. Group 1: “SHAM” control rats receiving the vehicle or vehicles. Group 2: “OVX” control rats receiving the vehicle or vehicles. Groups X: “OVX” rats receiving respectively defined doses of the product or products to be tested. At the end of 4 weeks (duration of the study) the animals are decapitated by guillotine. The serums collected after centrifugation are preserved at −20° C. A lipidic balance will be established from the serous determinations of total cholesterol, of triglycerides and of phospholipids on a 500 μl aliquot of serum. Lowering of the serous cholesterol level is expressed in % relative to the level shown by the ovariectomized animals receiving only the solvent. The uteri are removed. The latter are weighed. The increase in weight is expressed in % of the weight of the uterus of ovariectomized animals receiving only the solvent. The bone mass (BMD or bone mineral density) is measured by biphotonic dual energy X-ray absorptiometry (DEXA). The measurements are carried out on bone excized and cleaned of all soft tissue. The BMD (bone mineral density) is measured on the whole bone as well as on the metaphyseal part at the level of the proximal extremity for the left tibia. This zone is defined as being the region which is richest in trabecular bone; and consequently, is the most sensitive to variations in bone volume and bone mineral density. The results are expressed in % according to the formula: […]

[3] = 0.3 mg/kg po, listed as Ex. 1, 0.3 mg/kg

With `C[C@]12CC[C@@H]3c4ccc(O)cc4CC[C@H]3[C@@H]1CC[C@@H]2O` [Oestradiol, 17β oestradiol, reference compound] the “ACTIVITY (proliferative activity on MCF-7 cells)” value (shortened to “ACTIVITY”) [1] was “Agonist”, the “TIBIA BONE BMD %” value ([2]; 0.01 mg/kg s.c., 4 weeks preventive) was 95% and the “UTERUS Weight %” value ([2]; 0.01 mg/kg s.c.) was 317%. For the same molecule, the Cholesterol % ([2]; 0.01 mg/kg s.c.) was −16%, the “TIBIA BONE BMD %” value ([2]; 0.1 mg/kg s.c., 4 weeks preventive) was 139% and the “UTERUS Weight %” value ([2]; 0.1 mg/kg s.c.) was 220%. For the same molecule, the Cholesterol % ([2]; 0.1 mg/kg s.c.) was −3%.
With `C[C@]12C[C@H](c3ccc(OCCN4CCCCC4)cc3)[C@@H]3c4ccc(O)cc4CC[C@H]3[C@@H]1CC[C@H]2F.Cl` [Example 2, 17 alpha-fluoro-11-beta-[4-[2-(1-piperidinyl)ethoxy]phenyl]-estra-1,3,5(10)-trien-3-ol hydrochloride] the “ACTIVITY” value [1] was “Inactive”.
Work on `COc1ccc2c(c1)CC[C@@H]1[C@@H]2[C@@H](c2ccc(OCCN3CCCC3)cc2)C[C@]2(C)[C@H](F)CC[C@@H]12` yielded a melting point of 132 °C.
`CC1CCN(CCOc2ccc([C@H]3C[C@]4(C)[C@H](F)CC[C@H]4[C@@H]4CCc5cc(O)ccc5[C@H]43)cc2)CC1.Cl` gave a melting point of 200 °C.
`C[C@]12C[C@H](c3ccc(OCCN4CCCCC4)cc3)[C@@H]3c4ccc(O)cc4CC[C@H]3[C@@H]1CC=C2I.Cl` gave a melting point of 260 °C.
With `C[C@]12C[C@H](c3ccc(OCCN4CCCCC4)cc3)[C@@H]3c4ccc(O)cc4CC[C@H]3[C@@H]1CC[C@H]2F` [Example 1, 17 alpha-fluoro-11 beta-[4-[2-(1-piperidinyl)ethoxy]phenyl]-estra-1,3,5(10)-trien-3-ol] the “ACTIVITY” value [1] was “Inactive”, the “UTERUS Weight %” value ([2]; 0.1 mg/kg po) was 67% and the Cholesterol % ([2]; 0.1 mg/kg po) was −49%. The “TIBIA BONE BMD %” value ([2]; 0.1 mg/kg po, once/day 5 days/week 4 weeks) was 57%, the “UTERUS Weight %” value [2, 3] was 70% and 41% and the Cholesterol % [2, 3] was −59% and −51%. The “TIBIA BONE BMD %” value ([2]; 0.3 mg/kg po, once/day 5 days/week 4 weeks, listed as Ex. 1, 0.3 mg/kg) was 71% and 73%, the “UTERUS Weight %” value ([2]; 1.0 mg/kg po) was 93% and the Cholesterol % ([2]; 1.0 mg/kg po) was −61%. The “TIBIA BONE BMD %” value ([2]; 1.0 mg/kg po, once/day 5 days/week 4 weeks) was 72%.
